Results as given in patent publication US4073903A, “3-Desacetoxymethyl-3- 5'(1-methyltetrazolyl)thio!methyl-7- 1-(4-nitr oimidazolyl)acetyl!aminocephalosporanic acid” (Pierrel S.p.A., priority 1975, dated 1978).
Values after ≈ are worked out from the molar mass of the structure shown. Read-outs that look alike come from different tables or passages of the source.

Tests used:
[1] = system: Escherichia coli; test: Treatment of mice systemically infected with Escherichia coli (Table V); conditions: in Mus musculus, 168 h, read-out: ED50 per treatment
[2] = system: Escherichia coli; test: MIC against clinical isolates, broth dilution test (Table III); conditions: Escherichia coli, 24 h
[3] = system: Salmonella heidelberg; test: MIC against Ampicillin-resistant clinical isolates, broth dilution test (Table IV); conditions: Salmonella enterica, 24 h, read-out: Minimun inhibitory concentration (MIC)
[4] = system: Salmonella essen; test: as above; conditions: Salmonella enterica, 24 h, read-out: Minimun inhibitory concentration (MIC)
[5] = system: Klebsiella pneumoniae; conditions: in Mus musculus, 168 h, read-out: ED50 per treatment
[6] = system: Salmonella wien; test: MIC against Ampicillin-resistant clinical isolates, broth dilution test (Table IV); conditions: Salmonella enterica, 24 h
[7] = system: Klebsiella pneumoniae; test: MIC against clinical isolates, broth dilution test (Table II); conditions: Klebsiella pneumoniae, 24 h

MIC ([2]; read-out: Minimum inhibitory concentration (MIC), clinical isolate LRP 87): 25 µg/mL (≈ 55 µM)
MIC ([2]; read-out: Minimum inhibitory concentration (MIC), clinical isolate LRP 94): 6.25 µg/mL (≈ 13.8 µM)
MIC ([2]; read-out: Minimum inhibitory concentration (MIC), clinical isolate LRP 96): 6.25 µg/mL (≈ 13.8 µM)
MIC ([2]; read-out: Minimum inhibitory concentration (MIC), clinical isolate LRP 110): 6.25 µg/mL (≈ 13.8 µM)
MIC ([2]; read-out: Minimum inhibitory concentration (MIC), clinical isolate LRP 143): 1.56 µg/mL (≈ 3.43 µM)
MIC ([2]; read-out: Minimum inhibitory concentration (MIC), clinical isolate LRP 150): 12.5 µg/mL (≈ 27.5 µM)
MIC ([2]; read-out: Minimum inhibitory concentration (MIC), clinical isolate LRP 151): 12.5 µg/mL (≈ 27.5 µM)
MIC ([2]; read-out: Minimum inhibitory concentration (MIC), clinical isolate LRP 152): 100 µg/mL (≈ 220 µM)
MIC ([2]; read-out: Minimum inhibitory concentration (MIC), clinical isolate LRP 154): 3.12 µg/mL (≈ 6.86 µM)
MIC ([2]; read-out: Minimum inhibitory concentration (MIC), clinical isolate LRP 155): 1.56 µg/mL (≈ 3.43 µM)
MIC ([2]; read-out: Minimum inhibitory concentration (MIC), clinical isolate LRP 156): 6.25 µg/mL (≈ 13.8 µM)
MIC ([2]; read-out: Minimum inhibitory concentration (MIC), clinical isolate LRP 158): 25 µg/mL (≈ 55 µM)
MIC ([2]; read-out: Minimum inhibitory concentration (MIC), clinical isolate LRP 159): 1.56 µg/mL (≈ 3.43 µM)
MIC ([2]; read-out: Minimum inhibitory concentration (MIC), clinical isolate LRP 163): 3.12 µg/mL (≈ 6.86 µM)
MIC [3]: 12.5 µg/mL (≈ 27.5 µM)
MIC [4]: 6.25 µg/mL (≈ 13.8 µM)
MIC ([6]; read-out: Minimun inhibitory concentration (MIC), Ampicillin-resistant clinical isolate LRP 138): 25 µg/mL (≈ 55 µM)
MIC ([6]; read-out: Minimun inhibitory concentration (MIC), Ampicillin-resistant clinical isolate LRP 140): 50 µg/mL (≈ 110 µM)
MIC ([6]; read-out: Minimun inhibitory concentration (MIC), Ampicillin-resistant clinical isolate LRP 141): 100 µg/mL (≈ 220 µM)
MIC ([7]; read-out: Minimum inhibitory concentration (MIC), clinical isolate LRP 128): 25 µg/mL (≈ 55 µM)
MIC ([7]; read-out: Minimum inhibitory concentration (MIC), clinical isolate LRP 129): 3.12 µg/mL (≈ 6.86 µM)
MIC ([7]; read-out: Minimum inhibitory concentration (MIC), clinical isolate LRP 130): 25 µg/mL (≈ 55 µM)
MIC ([7]; read-out: Minimum inhibitory concentration (MIC), clinical isolate LRP 131): 25 µg/mL (≈ 55 µM)
MIC ([7]; read-out: Minimum inhibitory concentration (MIC), clinical isolate LRP 132): 1.56 µg/mL (≈ 3.43 µM)
MIC ([7]; read-out: Minimum inhibitory concentration (MIC), clinical isolate LRP 133): 1.56 µg/mL (≈ 3.43 µM)
MIC ([7]; read-out: Minimum inhibitory concentration (MIC), clinical isolate LRP 134): 3.12 µg/mL (≈ 6.86 µM)
MIC ([7]; read-out: Minimum inhibitory concentration (MIC), clinical isolate LRP 135): 25 µg/mL (≈ 55 µM)
MIC ([7]; read-out: Minimum inhibitory concentration (MIC), clinical isolate LRP 136): 50 µg/mL (≈ 110 µM)
MIC ([7]; read-out: Minimum inhibitory concentration (MIC), clinical isolate LRP 137): 0.25 µg/mL (≈ 0.55 µM)
SMILES: Cc1nnc(SCC2=C(C(=O)O)N3C(=O)[C@@H](NC(=O)Cn4cnnn4)[C@H]3SC2)s1 [Cefazolin, reference compound]
ED50 [1]: 35 mg/kg
ED50 [5]: 90 mg/kg
